For four compounds, TGI and GI50 results are on record in PubChem BioAssay (NCI).

Among the test systems are HCT-116 colon; HL-60(TB) leukemia; HS 578T breast; KM12 colon; MCF7 breast; MDA-MB-435; MOLT-4 leukemia; SK-MEL-2 melanoma; SNB-19 CNS; U251 CNS; NCI/ADR-RES ovarian; SNB-75 CNS.
Holding throughout (experiment): DTP human tumour cell line panel, 48 h

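A five-concentration, 48-hour dose response in 96-well plates underlies each endpoint, interpolated linearly between surrounding concentrations. GI50: concentration for 50% inhibition of growth. TGI denotes the concentration required for complete inhibition of growth.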 A value given as a limit tells only on which side of the number the result lay.

The TGI is the concentration at which net growth stops. Read a high TGI as lower sensitivity of the cells. For orientation: GI50 means the concentration at which growth is held to half of that of the control.

As for `CCOC(=O)C1=C(c2ccccc2)C12N(Cc1ccccc1)C(=O)C2(c1ccccc1)c1ccccc1` (stereo not given), the TGI with HCT-116 colon, in the test on HL-60(TB) leukemia, in the test with HS 578T breast, in the test on KM12 colon, in the test on MCF7 breast and in the test with MDA-MB-435 was more than 100 µM in each case. Moreover, the total growth inhibition concentration (TGI) with MOLT-4 leukemia was more than 100 µM; with SK-MEL-2 melanoma it was 80 µM; with SNB-19 CNS, more than 100 µM; in the test with U251 CNS, more than 100 µM.
On to `O=C1c2cc3c(cc2CC1Cc1ccc2c(c1)CCC2)CCC3` (stereo not given), for which the TGI with HCT-116 colon, in the test with HL-60(TB) leukemia, with HS 578T breast, in the test on KM12 colon, in the test on MCF7 breast and with MDA-MB-435 was more than 100 µM throughout. For the same compound, the total growth inhibition concentration (TGI) with MOLT-4 leukemia is more than 100 µM; in the test on NCI/ADR-RES ovarian it was more than 100 µM; with SK-MEL-2 melanoma, more than 100 µM; in the test on SNB-19 CNS it was more than 100 µM; with SNB-75 CNS, 75.5 µM; with U251 CNS it was more than 100 µM.
Turning to `COc1cc(-c2nc3cc(Cl)c(Cl)cc3[nH]2)ccc1OCC(=O)N=Nc1c(O)[nH]c2ccc(Cl)cc12`, the 50% growth inhibitory concentration (GI50) with HCT-116 colon was 0.284 µM; with HS 578T breast it was 1.04 µM; with MOLT-4 leukemia it was 0.321 µM; in the test with NCI/ADR-RES ovarian, more than 100 µM; in the test with SK-MEL-2 melanoma, 1.28 µM; in the test on SNB-19 CNS, 0.447 µM. Moreover, the GI50 was 1 µM with SNB-75 CNS and 0.203 µM in the test with U251 CNS. Further, the TGI in the test with HCT-116 colon is 1.2 µM; with HS 578T breast, 3.71 µM; with MOLT-4 leukemia, 1.59 µM; with NCI/ADR-RES ovarian it was more than 100 µM; with SK-MEL-2 melanoma, 2.93 µM; in the test with SNB-19 CNS, 3.33 µM. For the same compound, the concentration for total growth inhibition (TGI) with SNB-75 CNS turned out to be 3.93 µM; in the test on U251 CNS it was 0.565 µM.
Regarding `N#Cc1ccc(C2Oc3ccc(Cl)cc3C=C2[N+](=O)[O-])cc1` (stereo not given), the concentration for total growth inhibition (TGI) in the test with HCT-116 colon is 0.987 µM; with HL-60(TB) leukemia it was 3.91 µM; in the test with HS 578T breast, 47.6 µM; with KM12 colon, 3.81 µM; in the test with MCF7 breast, 3.14 µM; in the test on MDA-MB-435, 3.56 µM. For the same compound, the concentration for total growth inhibition (TGI) in the test with MOLT-4 leukemia is 4.24 µM; in the test with NCI/ADR-RES ovarian it was more than 100 µM; with SK-MEL-2 melanoma, 4.09 µM; with SNB-19 CNS, 6.58 µM; in the test on SNB-75 CNS, 2.83 µM; in the test with U251 CNS it was 3.31 µM.
